Experiment [1] has as its system bovine microtubule-associated protein (MAP)-rich tubulin. The format is biochemical. Conditions: 0.3 uM. The method, boiled down: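 MAP-rich bovine tubulin at 1.5 mg/ml final was dissolved in cold PEM buffer (80 mM Na-PIPES pH 6.9, 1 mM MgCl2, 1 mM EGTA) with 1 mM GTP, then centrifuged at 12,000×g for 10 min at 4° C. Aliquots of 100 μl were added quickly to a low-volume 96-well plate holding duplicate 10 μl compound samples. Absorbance at 340 nm was read each minute for 60 min at 24° C.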

A further experiment deals with KB cells. Put plainly: cells. The class given is cell-based. The settings on record: for IC50: 3 days, SRB. Here is the method:
(§1) Cell Survival Assay: Standard Pharmacological Test Procedure. […] Compounds are incubated with cells for 3 days.

For the next experiment, the system named is KB85. Put plainly: cells. The format is cell-based. Conditions: for IC50: 3 days, SRB. On the procedure: as §1
The subject of another experiment is KBV1. Nature of the experiment: cells. The format is cell-based. The settings on record: for inhibition at 3 µM: KB-V1, 3000 nM; for IC50: 3 days, SRB. On the procedure: as §1
Another experiment deals with HCT-15. Nature of the experiment: Cell survival assay (SRB), HCT-15. The settings on record: HCT-15 cells. The class given is cell-based. On the procedure:
as §1

In a further experiment the test system is LOX. Put plainly: Cell survival assay (SRB), LOX. Conditions: LOX cells. The format is cell-based, human. Here is the method: as §1
In a further experiment the test system is NCl-H1299. Put plainly: Cell survival assay (SRB), NCl-H1299. The class given is cell-based. The settings on record: NCl-H1299 cells. On the procedure:
as §1

Experiment [2] has as its system Human Melanoma Carcinoma Lox. Put plainly: Growth of tumors in nude mice (LOX xenograft). The class given is in vivo, athymic nu/nu female mice. The source says:
Growth of Tumors in Nude Mice. […] A p-value ≦0.05 indicates a statistically significant reduction in relative tumor growth of treated group compared to that of the vehicle control group.

The next experiment relates to Colo205. Nature of the experiment: Cell survival assay (SRB), Colo205. The class given is cell-based. Conditions: Homo sapiens, COLO 205, 72 h, Colo205 cells, 3 days. Here is the method: as §1
In a further experiment the test system is A375. Nature of the experiment: Cell survival assay (SRB), A375. The format is cell-based. Conditions: A375 cells. On the procedure: as §1
The test system of a further experiment is S1-M1. Nature of the experiment: Cell survival assay (SRB), S1-M1. The class given is cell-based. The settings on record: S1-M1 cells. On the procedure:
as §1

The subject of another experiment is S1. Put plainly: Cell survival assay (SRB), S1. Conditions: S1 cells. The format is cell-based. Here is the method:
as §1

For a further experiment, the system named is KM20. Nature of the experiment: Cell survival assay (SRB), KM20. The class given is cell-based. Conditions: KM20 cells. Here is the method: as §1

We go through 9 molecules from US7390910B2, “Compounds for treating tumors” (priority 2003, dated 2008).

Values joined by “and” are separate entries in the source; they are usually repeats but may differ in a detail not shown here. Identical values can stand only once.

For the molecule `C/C(=C\[C@H](C(C)C)N(C)C(=O)[C@@H](NC(=O)[C@@H](C)C(C)(C)c1ccccc1)C(C)(C)C)C(=O)O` [Example 92, (E,4S)-4-[((2S)-2-{[(2S)-2,3-dimethyl-3-phenylbutanoyl]amino}-3,3-dimethylbutanoyl)(methyl)amino]-2,5-dimethyl-2-hexenoic acid], in [1], the “Tubulin Polym. % inhibition at 0.3 uM” value turned out to be 94%. For the same molecule, the IC50 in the experiment with KB cells (Homo sapiens, KB, 72 h) came to 0.861 µM; in the experiment with KB85 (72 h), 0.99 µM; in the experiment on HCT-15 (Homo sapiens), 1.38 µM; in the experiment with LOX (Homo sapiens), 1.07 µM; in the experiment on NCl-H1299, 1.2 µM. The inhibition at 3 µM in the experiment on KBV1 (Homo sapiens) came to 30%.
`CN[C@H](C(=O)N[C@H](C(=O)N(C)[C@H](/C=C(\C)C(=O)N1CCN(C)CC1)C(C)C)C(C)(C)C)C(C)(C)c1ccccc1` [Example 26, N,β,β-trimethyl-L-phenylalanyl-N^1-[(1S,2E)-1-isopropyl-3-methyl-4-(4-methyl-1-piperazinyl)-4-oxo-2-butenyl]-N^1,3-dimethyl-L-valinamide]: the “Tubulin Polym. % inhibition at 0.3 uM” value in experiment [1] is listed as 71(2) %. For the same molecule, the half-maximal inhibitory concentration (IC50) worked out at 0.033 µM in the experiment on KB cells (Homo sapiens, KB, 72 h); 0.06 µM with KB85 (72 h); 2.33 µM in the experiment on KBV1 (Homo sapiens, KB-V1, 72 h); 0.046 µM with LOX (Homo sapiens). The “% T/C on day 7” value in [2] (15 mg/kg IV on days 1, 5, 9) is given as 4%.
With `CN[C@H](C(=O)N[C@H](C(=O)N(C)[C@H](/C=C(\C)C(C)=O)C(C)C)C(C)(C)C)C(C)(C)c1ccccc1` [Example 84, N,β,β-trimethyl-L-phenylalanyl-N^1-[(1S,2E)-1-isopropyl-3-methyl-4-oxo-2-pentenyl]-N^1,3-dimethyl-L-valinamide], in experiment [1], the “Tubulin Polym. % inhibition at 0.3 uM” value is 69%. In addition, the half-maximal inhibitory concentration (IC50) with KB cells (Homo sapiens, KB, 72 h) was determined as 0.403 µM; in the experiment with KB85 (72 h), 0.664 µM; in the experiment on KBV1 (Homo sapiens, KB-V1, 72 h), 2.36 µM; in the experiment with Colo205 it was 0.18 µM; in the experiment with HCT-15 (Homo sapiens), 1.26 µM; in the experiment with LOX (Homo sapiens) it was 0.55 µM. Further, the half-maximal inhibitory concentration (IC50) in the experiment on NCl-H1299 turned out to be 0.832 µM.
Turning to `CN[C@H](C(=O)N[C@H](C(=O)N(C)[C@H](/C=C(\C)C(=O)NN)C(C)C)C(C)(C)C)C(C)(C)c1ccccc1` [Example 109, (2S)-N-[(1S,2E)-4-hydrazino-1-isopropyl-3-methyl-4-oxo-2-butenyl]-N,3,3-trimethyl -{[(2S)-3-methyl-2-(methylamino)-3-phenylbutanoyl]amino}butanamide], the IC50 was 0.065 µM with KB cells, 0.227 µM in the experiment with KB85, 2.08 µM with KBV1 and 0.019 µM with A375. Also, the “KBV1 % inhibition @ 3000 nM” value in the experiment with KBV1 amounted to 23%. The “% T/C on day 7” value in experiment [2] (3 mg/kg IV on days 1, 5, 9) is 24%. Moreover, the “% T/C on day 13” value in experiment [2] (3 mg/kg IV on days 1, 5, 9, day 13) is listed as 8%.
“(2E,4S)-2,5-dimethyl-4-(methyl{3-methyl-N-[(2S)-3-methyl-2-(methylamino)-3-phenylbutyl]-L-valyl}amino)-2-hexenoic acid [Example 87]”: in experiment [1], the “Tubulin Polym. % inhibition at 0.3 uM” value came out at 28%. The IC50 in the experiment with KB cells came to 0.104 µM; with KB85, 0.312 µM; in the experiment on HCT-15, 0.759 µM; in the experiment on LOX it was 0.151 µM; in the experiment with NCl-H1299, 0.295 µM. The “KBV1 % inhibition @ 3000 nM” value in the experiment on KBV1 is 14%(2).
In the case of `CN[C@H](C(=O)N[C@H](C(=O)N(C)[C@H](/C=C(\C)C(=O)N1CCOCC1)C(C)C)C(C)(C)C)C(C)(C)c1ccccc1` [Example 27, (2S)-N-[(1S,2E)-1-isopropyl-3-methyl-4-(4-morpholinyl)-4-oxo-2-butenyl]-N,3,3-trimethyl-2-{[(2S)-3-methyl-2-(methylamino)-3-phenylbutanoyl]amino}butanamide], the “Tubulin Polym. % inhibition at 0.3 uM” value in [1] is 69%. Moreover, the concentration for half-maximal inhibition (IC50) with KB cells (Homo sapiens, KB, 72 h) came out at 0.0435 µM; with KB85 (72 h), 0.0735 µM; in the experiment on KBV1 (Homo sapiens, KB-V1, 72 h), 1.3 µM; with Colo205, 0.023 µM; in the experiment with HCT-15 (Homo sapiens), 0.026 µM; with LOX (Homo sapiens), 0.05 µM. The concentration for half-maximal inhibition (IC50) with S1-M1 came out at 0.336 µM; in the experiment with S1, 0.657 µM; in the experiment on NCl-H1299, 0.038 µM. In addition, the “% T/C on day 7” value in [2] (10 mg/kg IV on days 1, 5, 9) is 13% and 11%. The “% T/C on day 12” value in [2] (10 mg/kg IV on days 1, 5, 9, day 12) is listed as 2%. In addition, the “% T/C on day 14” value in [2] (10 mg/kg IV on days 1, 5, 9) turned out to be 2%.
Consider `CN[C@H](C(=O)N[C@H](C(=O)N(C)[C@H](/C=C(\C)C=O)C(C)C)C(C)(C)C)C(C)(C)c1ccccc1` [Example 82, N,β,β-trimethyl-L-phenylalanyl-N^1-[(1S,2E)-1-isopropyl-3-methyl-4-oxo-2-butenyl]-N^1,3-dimethyl-L-valinamide], for which the “Tubulin Polym. % inhibition at 0.3 uM” value in [1] is 51% and 47%. Besides, the 50% inhibitory concentration (IC50) in the experiment with KB cells (Homo sapiens, KB, 72 h) is 0.713 µM; in the experiment on KB85 (72 h), 1.33 µM; in the experiment with KBV1 it was greater than 3 µM; in the experiment with KBV1 (Homo sapiens, KB-V1, 72 h), 1.94 µM; in the experiment with Colo205, 0.0051 µM; in the experiment with HCT-15 (Homo sapiens), 1.5 µM. The 50% inhibitory concentration (IC50) came out at 0.63 µM in the experiment with LOX (Homo sapiens); 0.663 µM in the experiment on A375 (Homo sapiens, A-375); 0.0046 µM in the experiment with KM20; 1.57 µM in the experiment with NCl-H1299.
Turning to `CN[C@H](C(=O)N[C@H](C(=O)N(C)[C@H](/C=C(\C)C(=O)N1CCC[C@H]1C(=O)OC)C(C)C)C(C)(C)C)C(C)(C)c1ccccc1` [Example 35, N,β,β-trimethyl-L-phenylalanyl-N^1-{(1S,2E)-4-[(2S)-2-(methoxycarbonyl)pyrrolidin-1-yl]-1-isopropyl-3-methyl-4-oxobut-2-enyl}-N^1,3-dimethyl-L-valinamide], the “Tubulin Polym. % inhibition at 0.3 uM” value in experiment [1] was 82%. Besides, the half-inhibitory concentration (IC50) with KB cells (Homo sapiens, KB, 72 h) came to 0.0015 µM; in the experiment on KB85 (72 h), 0.0073 µM; in the experiment on KBV1 (Homo sapiens, KB-V1, 72 h), 0.291 µM; with S1-M1, 0.011 µM; in the experiment with S1 it was 0.009 µM. Moreover, the “% T/C on day 7” value in experiment [2] (2 mg/kg IV on days 1, 5, 9) was determined as 5%. Besides, in [2] (2 mg/kg IV on days 1, 5, 9), the “% T/C on day 14” value came to 1%.
As for `CO[C@H](C(=O)N[C@H](C(=O)N(C)[C@H](/C=C(\C)C(=O)O)C(C)C)C(C)(C)C)C(C)(C)c1ccccc1` [Example 105, (E,4S)-4-[{N-[(2S)-2-methoxy-3-methyl-3-phenylbutanoyl]-3-methyl-L-valyl}(methyl)amino]-2,5-dimethyl-2-hexenoic acid], in experiment [1], the “Tubulin Polym. % inhibition at 0.3 uM” value stood at 64%. The inhibition at 3 µM amounted to 43% in the experiment on KB cells (Homo sapiens, 72 h, 3000 nM); 21% with KB85 (3000 nM); 0% in the experiment on KBV1 (Homo sapiens). Besides, the 50% inhibitory concentration (IC50) came to 2.69 µM in the experiment on KB cells (Homo sapiens, KB, 72 h); 1.74 µM with Colo205; 1.74 µM in the experiment on LOX (Homo sapiens).

The term IC50 denotes the concentration needed to halve the response being measured. Usually inhibition stands for how much of the control response was suppressed. A lower inhibition goes with a weak effect.
